# Assay results reported in patent US10202344B2, “Aryl substituted indoles and the use thereof” (Purdue Pharma L.P., priority 2010, dated 2019).
# Biological target: human Nav1.7 (Homo sapiens (Human), UniProt Q15858)
# Assay: FLIPR or FLIPR TETRA sodium dye assay with KCl and test article pre-incubation
# Assay type: cell-based
# Conditions: read-out: FLIPR Nav1.7 IC50 (μM) ± SEM
# Sequence of human Nav1.7 (Q15858 other isoform, or with tags, fused parts or gaps): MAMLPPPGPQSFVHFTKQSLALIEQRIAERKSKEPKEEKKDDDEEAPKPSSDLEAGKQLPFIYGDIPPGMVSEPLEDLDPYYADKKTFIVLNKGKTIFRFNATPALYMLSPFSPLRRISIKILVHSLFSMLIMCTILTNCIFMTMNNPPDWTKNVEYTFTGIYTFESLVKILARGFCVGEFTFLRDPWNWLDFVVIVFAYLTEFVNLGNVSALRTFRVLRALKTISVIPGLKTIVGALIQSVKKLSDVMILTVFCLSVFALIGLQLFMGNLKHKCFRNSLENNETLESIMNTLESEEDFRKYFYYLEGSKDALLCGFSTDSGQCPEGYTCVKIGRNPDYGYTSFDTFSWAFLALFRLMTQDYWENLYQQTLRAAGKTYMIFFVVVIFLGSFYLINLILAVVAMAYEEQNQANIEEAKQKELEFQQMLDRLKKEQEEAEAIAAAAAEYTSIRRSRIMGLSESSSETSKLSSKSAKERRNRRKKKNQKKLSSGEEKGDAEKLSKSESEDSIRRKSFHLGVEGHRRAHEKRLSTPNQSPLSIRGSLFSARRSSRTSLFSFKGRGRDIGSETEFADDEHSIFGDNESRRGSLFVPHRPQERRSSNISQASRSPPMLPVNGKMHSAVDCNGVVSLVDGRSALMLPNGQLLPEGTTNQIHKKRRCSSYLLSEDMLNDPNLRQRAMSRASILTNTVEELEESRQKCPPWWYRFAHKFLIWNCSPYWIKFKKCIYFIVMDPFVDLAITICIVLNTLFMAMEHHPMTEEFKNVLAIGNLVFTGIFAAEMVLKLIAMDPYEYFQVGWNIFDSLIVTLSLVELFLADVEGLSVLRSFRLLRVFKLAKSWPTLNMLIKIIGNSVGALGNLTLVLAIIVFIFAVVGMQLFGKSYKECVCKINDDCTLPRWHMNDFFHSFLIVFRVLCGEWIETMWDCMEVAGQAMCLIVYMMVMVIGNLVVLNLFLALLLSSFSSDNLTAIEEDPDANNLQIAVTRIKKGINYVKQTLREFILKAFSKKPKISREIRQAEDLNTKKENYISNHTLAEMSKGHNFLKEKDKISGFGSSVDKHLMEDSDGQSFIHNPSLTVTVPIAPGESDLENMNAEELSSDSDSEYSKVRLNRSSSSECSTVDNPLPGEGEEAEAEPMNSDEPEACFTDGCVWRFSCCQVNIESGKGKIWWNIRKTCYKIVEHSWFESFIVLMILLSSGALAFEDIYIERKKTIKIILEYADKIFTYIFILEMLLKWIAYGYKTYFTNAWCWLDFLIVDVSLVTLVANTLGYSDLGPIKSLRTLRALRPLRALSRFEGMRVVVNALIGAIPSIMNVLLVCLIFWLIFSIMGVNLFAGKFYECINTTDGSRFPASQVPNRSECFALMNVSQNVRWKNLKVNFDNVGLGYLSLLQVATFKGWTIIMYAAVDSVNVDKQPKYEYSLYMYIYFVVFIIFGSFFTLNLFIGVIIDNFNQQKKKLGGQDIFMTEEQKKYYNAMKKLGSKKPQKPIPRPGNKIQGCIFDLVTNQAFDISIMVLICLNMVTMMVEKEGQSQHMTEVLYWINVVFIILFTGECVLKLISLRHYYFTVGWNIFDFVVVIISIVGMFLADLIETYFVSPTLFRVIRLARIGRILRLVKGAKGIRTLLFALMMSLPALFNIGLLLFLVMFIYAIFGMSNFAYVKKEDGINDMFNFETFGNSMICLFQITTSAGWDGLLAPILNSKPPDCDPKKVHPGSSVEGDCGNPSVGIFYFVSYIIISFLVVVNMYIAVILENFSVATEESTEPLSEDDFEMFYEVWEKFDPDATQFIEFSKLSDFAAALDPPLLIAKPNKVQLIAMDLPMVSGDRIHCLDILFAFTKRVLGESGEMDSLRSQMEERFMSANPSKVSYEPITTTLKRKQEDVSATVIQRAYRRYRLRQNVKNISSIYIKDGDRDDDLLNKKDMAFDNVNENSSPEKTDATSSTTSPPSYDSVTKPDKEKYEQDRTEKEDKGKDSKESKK
row,Compound,IC50 [µM]
1,"N#Cc1cc(Oc2ccc(-n3cc(C(=O)C(N)=O)c4ccccc43)cc2)ccc1C(F)(F)F [Compound 59, 2-(1-(4-(3-Cyano-4-(trifluoromethyl)phenoxy)phenyl)-1H-indol-3-yl)-2-oxoacetamide]",3.54 ± 0.459
2,"O=C(NCCO)c1nn(-c2ccc(Oc3ccccc3)cc2)c2ccccc12 [Compound 144, N-(2-hydroxyethyl)-1-(4-phenoxyphenyl)-1H-indazole-3-carboxamide]",0.16 ± 0.049

# Same assay, conditions: recombinant human Nav1.7 in HEK293 cells; sodium dye assay with KCl; read-out: FLIPR Nav1.7 IC50 (μM) ± SEM
row,Compound,IC50 [µM]
1,"CCOC(=O)C(Cc1c[nH]c2ccc(-c3ccc(Oc4ccccc4)cc3)cc12)[N+](=O)[O-] (centres unmarked) [Compound 6, 2-Nitro-3-[5-(4-phenoxyphenyl)-1H-indol-3-yl]propionic acid ethyl ester]",5.14 ± 0.954
2,"NCCc1cn(-c2ccc(Oc3ccccc3)cc2)c2ccccc12 [Compound 43, 2-(1-(4-Phenoxyphenyl)-1H-indol-3-yl)ethanamine]",0.684 ± 0.041
3,"CN(C)CCc1cn(-c2ccc(Oc3ccccc3)cc2)c2ccc(C[C@H]3COC(=O)N3)cc12 [Compound 45, (S)-4-{[3-(2-(Dimethylamino)ethyl)-1-(4-phenoxyphenyl)-1H-indol-5-yl]methyl}oxazolidin-2-one]",1.9 ± 0.636
4,"N#Cc1cc(Oc2ccc(-n3cc(C[C@H]4COC(=O)N4)c4ccccc43)cc2)ccc1C(F)(F)F [Compound 46, (S)-5-{4-[3-((2-Oxooxazolidin-4-yl)methyl)-1H-indol-1-yl]phenoxy}-2-(trifluoromethyl)benzonitrile]",0.715 ± 0.126
5,"N#Cc1cccc(Oc2ccc(-n3cc(C[C@H](N)CO)c4ccccc43)cc2)c1 [Compound 57, (S)-5-{4-[3-(2-Amino-3-hydroxypropyl)-1H-indol-1-yl]phenoxy}benzonitrile]",0.383 ± 0.081
6,"N#Cc1cc(Oc2ccc(-n3cc(C(=O)C(=O)NC[C@H](O)CO)c4ccccc43)cc2)ccc1C(F)(F)F [Compound 68, (S)-2-(1-(4-(3-cyano-4-(trifluoromethyl)phenoxy)-phenyl)-1H-indol-3-yl)-N-(2,3-dihydroxypropyl)-2-oxoacetamide]",0.572 ± 0.137
7,"N#Cc1cc(Oc2ccc(-n3cc(C(=O)C(=O)O)c4cc([C@@H](O)CO)ccc43)cc2)ccc1C(F)(F)F [Compound 98, (R)-2-(1-(4-(3-cyano-4-(trifluoromethyl)phenoxy)-phenyl)-5-(1,2-dihydroxyethyl)-1H-indol-3-yl)-2-oxoacetic acid]",> 20
8,"NC(=O)c1nn(-c2ccc(Oc3ccc(C(F)(F)F)cc3)cc2)c2ccc(F)cc12 [Compound 150, 5-fluoro-1-(4-(4-(trifluoromethyl)phenoxy)phenyl)-1H-indazole-3-carboxamide]",6.97 ± 0.934
9,"N#Cc1cc(Oc2ccc(-n3nc(C(N)=O)c4ccccc43)cc2)ccc1C(F)(F)F [Compound 152, 1-(4-(3-cyano-4-(trifluoromethyl)phenoxy)-phenyl)-1H-indazole-3-carboxamide]",0.602 ± 0.053
10,"(S)-3-(1-(4-(4-fluorophenoxy)phenyl)-1H-pyrrolo[2,3-c]pyridin-3-yl)propane-1,2-diol [Compound 170]",1.38 ± 0.542

# Biological target: hNav1.7 (Homo sapiens (Human), UniProt Q15858)
# Sequence (Q15858 other isoform, or with tags, fused parts or gaps): as above
# Assay: Electrophysiology (EP) assay, whole-cell patch clamp
# Assay type: cell-based
# Conditions: hNav1.7 expressing HEK-293 cells, read-out: EP Nav1.7 Ki
# Description: Cells: The hNav1.7 expressing HEK-293 cells were plated on 35 mm culture dishes pre-coated with poly-D-lysine in standard DMEM culture media (Mediatech, Inc., Herndon, Va.) and incubated in a 5% CO2 incubator at 37° C. Cultured cells were used approximately 12-48 hours after plating.
# Electrophysiology: On the day of experimentation, the 35 mm dish was placed on the stage of an inverted microscope equipped with a perfusion system that continuously perfuses the culture dish with fresh recording media. A gravity driven superfusion system was used to apply test solutions directly to the cell under evaluation. This system consists of an array of glass pipette glass connected to a motorized horizontal translator. The outlet of the shooter was positioned approximately 100 μm from the cell of interest.
# Gigaseals were formed and the whole-cell configuration was established in voltage clamp mode, and membrane currents generated by hNav1.7 were recorded in gap-free mode. […] Signals were sampled at 50 kHz and low pass filtered at 3 kHz.
# The voltage clamp protocol to examine hNav1.7 currents was as follows. […] The amount of inhibition produced by the test compound was determined by comparing the current amplitude elicited by the test pulse in the absence and presence of the compound. […]
row,Compound,Ki [nM]
1,"CN(C)CCc1cn(-c2ccc(Oc3ccccc3)cc2)c2ccc(C[C@H]3COC(=O)N3)cc12 [Compound 45, (S)-4-{[3-(2-(Dimethylamino)ethyl)-1-(4-phenoxyphenyl)-1H-indol-5-yl]methyl}oxazolidin-2-one]",1310
2,"N#Cc1cccc(Oc2ccc(-n3cc(C[C@H](N)CO)c4ccccc43)cc2)c1 [Compound 57, (S)-5-{4-[3-(2-Amino-3-hydroxypropyl)-1H-indol-1-yl]phenoxy}benzonitrile]",50
